One data set has as its system HepaRG cells. The conditions noted are these: cited from earlier work.
Data set [1] concerns hASCs (human adipose-derived stromal cells). As to the kind of experiment: Cytotoxicity IC50, TOX-8 resazurin assay, hASCs, 24 h. It is filed as cell-based. The conditions noted are these: hASCs, TOX-8 assay, 24 h. How it is done:
Human Adipose Tissue-derived Stem Cells (hASCs) were isolated from subcutaneous adipose tissue fragments harvested from non-diabetic female donors (age range 33–38, n = 2) during standard surgical procedure of total hip arthroplasty. Immediately after collection of tissue, the samples were placed in sterile tissue-transport medium (Hank’s Balanced Salt Solution (HBSS) supplemented with 1% Penicillin/Streptomycin/Amphotericin B solution (P/S/A). Mesenchymal stromal cell isolation was performed using enzymatic digestion of extracellular matrix with collagenase type I. Before digestion, tissue specimens were washed twice with HBSS and incubated in collagenase type I solution (1 mg/mL) at 37 °C for 40 min. The digest was subsequently centrifuged (1200 × g; 10 minutes; room temperature) and the cell pellet was resuspended in Dulbecco’s modified Eagle’s medium (DMEM) with Nutrient F-12 Ham, 10% of Fetal Bovine Serum (FBS), and 1% of P/S/A, transferred to a culture flask, and kept in culture under optimal conditions (37 °C in a humidified atmosphere of 5% CO2). The medium was refreshed every 2–3 days. At 80–90% confluence, the cells were passaged using trypsin solution (TrypLE Express, Life Technologies, California, USA). At passage 3, hASCs were collected and cellular phenotype was confirmed by the high expression of markers CD44, CD29, CD73, CD105 and low expression of CD45. Moreover, the trilineage differentiation capacity of ASCs was confirmed as previously described.
The IC50 values were determined using in vitro Toxicology TOX-8 Assay Kit (resazurin based) according to the manufacturer’s protocol. For this assay, cells were seeded in a 96-well plate at a density of 5 × 10^3 cells/well. The cells were pre-incubated in drug-free complete medium for 24 h before adding various concentrations of the compounds to be investigated. Stock solutions of the compounds were prepared in DMSO following serial dilutions in DMEM with Nutrient F-12 Ham complete medium. The cells exposure period was 24 h. After that time media were replaced with 10% v/v resazurin dye solution in fresh complete culture medium. Incubation was carried out for 2 h at 37 °C in the CO2 incubator. Reduction of the dye was measured spectrophotometrically at 600 nm and 690 nm reference wavelength (Epoch, Biotek). Absorbance measurements allowed the determination of viable treated cells relative to untreated controls using the inflection point of a dose-response graph. IC50 values were estimated as duplicates of triplicate readings in two independent experiments.
A general note: Alamar Blue is a resazurin reagent that responds to reducing activity.

SMILES strings stand for the structures. Entries after “also recorded” stand apart in the source; their conditions may differ.

For `CC(=O)N1CCN(c2ccc(OCC3COC(Cn4ccnc4)(c4ccc(Cl)cc4Cl)O3)cc2)CC1` (centres unmarked) [Ke, ketoconazole, reference compound], the “concentration at which cytotoxicity started” value with HepaRG cells is recorded as 100 µM.

For `S=P(CN1CCN(c2ccc(OC[C@H]3CO[C@](Cn4ccnc4)(c4ccc(Cl)cc4Cl)O3)cc2)CC1)(c1ccccc1)c1ccccc1` [KeSP, Ph2P(S)CH2-Ke], the “IC50 (cytotoxicity, hASCs viability)” value in data set [1] is listed as “not cytotoxic in the tested concentration range; also recorded: not toxic”.

The record behind these values is article PMC6838151 (Scientific Reports, 2019).
